pIC50: −log10 of the molar value. Where only a bound is given, the exact number is not on record here.

The target in the assay is recombinant CD73 (Homo sapiens (Human), UniProt P21589). Nature of the assay: Inhibition of the CD73 enzyme in vitro (soluble recombinant CD73, AMP, Malachite Green). It is filed as biochemical. The following applies: recombinant CD73 0.5 nM, AMP 50 μM, 30 minutes at room temperature. The protocol: The concentration of inorganic phosphate was determined using a phosphate standard curve.
Sequence of recombinant CD73 (P21589 27-547): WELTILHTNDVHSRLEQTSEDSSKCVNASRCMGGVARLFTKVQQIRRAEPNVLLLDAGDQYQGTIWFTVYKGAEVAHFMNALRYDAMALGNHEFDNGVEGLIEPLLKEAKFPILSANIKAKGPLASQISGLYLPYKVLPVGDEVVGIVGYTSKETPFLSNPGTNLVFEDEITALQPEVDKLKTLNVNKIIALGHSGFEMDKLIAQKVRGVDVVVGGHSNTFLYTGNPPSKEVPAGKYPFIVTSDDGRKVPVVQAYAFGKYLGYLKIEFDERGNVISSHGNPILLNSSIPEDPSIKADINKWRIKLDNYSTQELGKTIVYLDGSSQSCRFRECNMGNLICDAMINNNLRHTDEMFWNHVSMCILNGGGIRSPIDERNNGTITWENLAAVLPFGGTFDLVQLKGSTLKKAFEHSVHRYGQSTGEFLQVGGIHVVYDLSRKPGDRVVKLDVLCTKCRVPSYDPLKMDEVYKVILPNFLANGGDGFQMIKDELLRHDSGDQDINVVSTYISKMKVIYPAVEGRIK
What is called pIC50 is the negative decadic logarithm of the IC50, by convention in mol/L. On to `Nc1nc(Cl)nc2c1ncn2[C@@H]1O[C@H](COC(Cc2cccc(O)c2)(C(=O)O)C(=O)O)[C@@H](O)[C@@H]1F` [compound 56, 2-(((2R,3R,4S,5R)-5-(6-amino-2-chloro-9H-purin-9-yl)-4-fluoro-3-hydroxytetrahydrofuran-2-yl)methoxy)-2-(3-hydroxybenzyl)malonic acid], for which the pIC50 was 6.77.

`Nc1nc(Cl)nc2c1ncn2[C@@H]1O[C@H](COC(Cc2ccc(NC(=O)c3cccs3)cc2)(C(=O)O)C(=O)O)[C@@H](O)[C@@H]1F` [compound 140]: the pIC50 is 7.52.

Take `Nc1nc(Cl)nc2c1ncn2[C@@H]1O[C@H](COC(Cc2ccc(C(=O)O)s2)(C(=O)O)C(=O)O)[C@@H](O)[C@@H]1F` [compound 77, 2-(((2R,3R,4S,5R)-5-(6-amino-2-chloro-9H-purin-9-yl)-4-fluoro-3-hydroxytetrahydro-furan-2-yl)methoxy)-2-((5-carboxythiophen-2-yl)methyl)malonic acid]: the pIC50 was 6.59. Consider `Nc1nc(Cl)nc2c1ncn2[C@@H]1O[C@H](COC(Cc2ccc(C(=O)O)cc2)(C(=O)O)C(=O)O)[C@@H](O)[C@@H]1F` [compound 171], for which the pIC50 was 6.94. Next, `Nc1nc(Cl)nc2c1ncn2[C@@H]1O[C@H](COC(Cc2cccc(-c3nnn[nH]3)c2)(C(=O)O)C(=O)O)[C@@H](O)[C@@H]1F` [compound 53, 2-(3-(1H-tetrazol-5-yl)benzyl)-2-(((2R,3R,4S,5R)-5-(6-amino-2-chloro-9H-purin-9-yl)-4-fluoro-3-hydroxytetrahydrofuran-2-yl)methoxy)malonic acid]: 6.35. Then `C[C@@]1(O)[C@H](O)[C@@H](COC(Cc2ccc(C(=O)O)cc2)(C(=O)O)C(=O)O)O[C@H]1n1cnc2c(N)nc(Cl)nc21` [compound 107], with 4.37; and `Nc1nc(Cl)nc2c1ncn2[C@@H]1O[C@H](COC(Cc2csc(C(=O)O)c2)(C(=O)O)C(=O)O)[C@@H](O)[C@@H]1F` [compound 76, 2-(((2R,3R,4S,5R)-5-(6-amino-2-chloro-9H-purin-9-yl)-4-fluoro-3-hydroxytetrahydro-furan-2-yl)methoxy)-2-((5-carboxythiophen-3-yl)methyl)malonic acid], with 7.13; and `Nc1nc(Cl)nc2c1ncn2[C@@H]1O[C@H](COC(Cc2cc(C(=O)O)no2)(C(=O)O)C(=O)O)[C@@H](O)[C@@H]1F` [compound 83, 2-(((2R,3R,4S,5R)-5-(6-amino-2-chloro-9H-purin-9-yl)-4-fluoro-3-hydroxytetrahydrofuran-2-yl)methoxy)-2-((3-carboxyisoxazol-5-yl)methyl)malonic acid], with 5.19. Then `Nc1nc(Cl)nc2c1ncn2[C@@H]1O[C@H](COC(Cc2ccc(CC(=O)O)cc2)(C(=O)O)C(=O)O)[C@@H](O)[C@@H]1F` [compound 78, 2-(((2R,3R,4S,5R)-5-(6-amino-2-chloro-9H-purin-9-yl)-4-fluoro-3-hydroxytetrahydrofuran-2-yl)methoxy)-2-(4-(carboxymethyl)benzyl) malonic acid], with 7.07.

For `COc1nc(N)c2ncn([C@@H]3O[C@H](COC(Cc4ccccc4)(C(=O)O)C(=O)O)C[C@@H]3F)c2n1` [compound 120], the pIC50 was 4.26. On to `Nc1nc(Cl)nc2c1ncn2[C@@H]1O[C@H](COC(Cc2cc(-c3ccccc3)no2)(C(=O)O)C(=O)O)[C@@H](O)[C@@H]1F` [compound 61, 2-(((2R,3R,4S,5R)-5-(6-amino-2-chloro-9H-purin-9-yl)-4-fluoro-3-hydroxytetrahydrofuran-2-yl)methoxy)-2-((3-phenylisoxazol-5-yl)methyl)malonic acid], for which the pIC50 is 5.65. With `Nc1nc(Cl)nc2c1ncn2[C@@H]1O[C@H](COC(Cc2ccccc2)(C(=O)O)C(=O)O)C[C@@H]1F` [compound 119], the pIC50 is 4.55.

For the molecule `Nc1nc(Cl)nc2c1ncn2[C@@H]1O[C@H](COC(Cc2ccc(C(=O)O)c(F)c2)(C(=O)O)C(=O)O)[C@@H](O)[C@@H]1F` [compound 58, 2-(((2R,3R,4S,5R)-5-(6-amino-2-chloro-9H-purin-9-yl)-4-fluoro-3-hydroxytetrahydro-furan-2-yl)methoxy)-2-(4-carboxy-3-fluorobenzyl)malonic acid], the negative logarithm of the IC50 (pIC50) is 7.42. For the molecule `Nc1nc(Cl)nc2c1ncn2[C@@H]1O[C@H](COC(Cc2ccc(NC(=O)c3cccs3)cc2)(C(=O)O)C(=O)O)[C@@H](O)[C@@H]1F` [compound 141], the pIC50 was 7.22. `Nc1nc(Cl)nc2c1ncn2[C@@H]1O[C@H](COC(Cc2ccc(C(F)(F)F)o2)(C(=O)O)C(=O)O)[C@@H](O)[C@@H]1F` [compound 59, 2-(((2R,3R,4S,5R)-5-(6-amino-2-chloro-9H-purin-9-yl)-4-fluoro-3-hydroxytetrahydro-furan-2-yl)methoxy)-2-((5-(trifluoromethyl)-furan-2-yl)methyl)malonic acid]: the pIC50 was 6.36. Then `Nc1nc(Cl)nc2c1ncn2[C@@H]1O[C@H](COC(Cc2ccc3ccccc3c2)(C(=O)O)C(=O)O)[C@@H](O)[C@@H]1F` [compound 17, 2-(((2R,3R,4S,5R)-5-(6-amino-2-chloro-9H-purin-9-yl)-4-fluoro-3-hydroxytetrahydrofuran-2-yl)methoxy)-2-(naphthalen-2-ylmethyl)malonic acid], with 6.16; and `Nc1nc(Cl)nc2c1ncn2[C@@H]1O[C@H](COC(Cc2ccc(OCC(F)(F)F)cc2)(C(=O)O)C(=O)O)[C@@H](O)[C@@H]1F` [compound 89, 2-(((2R,3R,4S,5R)-5-(6-amino-2-chloro-9H-purin-9-yl)-4-fluoro-3-hydroxytetrahydrofuran-2-yl)methoxy)-2-(4-(2,2,2-trifluoroethoxy)benzyl) malonic acid], with 7.37. Then `Nc1nc(Cl)nc2c1ncn2[C@@H]1O[C@H](COC(Cc2ccc(-c3cccnc3)cc2)(C(=O)O)C(=O)O)[C@@H](O)[C@@H]1F` [compound 142], with 7.17. On to `CCOC(=O)C(Cc1ccc(OC(F)(F)F)cc1)(OC[C@H]1O[C@@H](n2cnc3c(N)nc(Cl)nc32)[C@@H](F)[C@@H]1O)C(=O)O` (single isomer, unassigned) [compound 38], for which the pIC50 is 6.16.

Consider `Nc1nc(Cl)nc2c1ncn2[C@@H]1O[C@H](COC(Cc2ccc(Cl)cc2F)(C(=O)O)C(=O)O)[C@@H](O)[C@@H]1F` [compound 80, 2-(((2R,3R,4S,5R)-5-(6-amino-2-chloro-9H-purin-9-yl)-4-fluoro-3-hydroxytetrahydrofuran-2-yl)methoxy)-2-(4-chloro-2-fluorobenzyl)malonic acid], for which the pIC50 is 7.36. As for `CCOC(=O)C(Cc1ccccc1)(OC[C@@H]1C[C@H](F)[C@H](n2cnc3c(N)nc(Cl)nc32)O1)C(=O)OCC` [compound 118], the pIC50 was less than 3.70.

In the case of `CS(=O)(=O)c1ccc(CC(OC[C@H]2O[C@@H](n3cnc4c(N)nc(Cl)nc43)[C@@H](F)[C@@H]2O)(C(=O)O)C(=O)O)cc1` [compound 21, 2-(((2R,3R,4S,5R)-5-(6-amino-2-chloro-9H-purin-9-yl)-4-fluoro-3-hydroxytetrahydrofuran-2-yl)methoxy)-2-(4-(methylsulfonyl)benzyl) malonic acid], the pIC50 was 6.71.

The record behind these values is US11034715B2, “Ectonucleotidase inhibitors and methods of use thereof” (Calithera Biosciences, Inc., priority 2016, dated 2021).
